Laboratory results: US20110045101A1, “FUNGICIDAL SUBSTITUTED AZOLES” (E.I. Du Pont De Nemours and Company, priority 2009, published 2011)
Marks after values point to notes of the source that are not given here.

Assays:
Assay type in all cases: in vivo
Conditions in all cases: 100 = 100% disease control
[1] = test system: Alternaria solani; test: Test D: tomato early blight, sprayed the day before inoculation, visual disease rating
How it was run: (§1)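 Compounds were dissolved in acetone (3% of final volume), then suspended in 50/50 acetone/purified water with 250 ppm Trem® 014 surfactant. Suspensions at 200 ppm (some at 40 ppm) were sprayed to run-off, 200 ppm being equivalent to 500 g/ha.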

[2] = test system: Puccinia recondita f. sp. tritici; test: Test H: wheat leaf rust, test suspension sprayed after inoculation of wheat seedlings, visual disease rating
How it was run: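 Wheat seedlings inoculated with P. recondita spores, held 24 h saturated at 20 °C, then 2 days in growth chamber at 20 °C; compound suspension (acetone/water with Trem 014) sprayed to run-off afterwards. Rated visually; 200 ppm (≈500 g/ha) unless marked *, which denotes 40 ppm.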

[3] = test system: Septoria tritici; test: Test G: wheat leaf blotch on wheat seedlings, sprayed the day before inoculation, visual disease rating
How it was run: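 Seedlings receive a protective spray of test suspension in acetone/water carrying 250 ppm surfactant, mostly at 200 ppm and at 40 ppm where marked. They are inoculated the next day, kept saturated at 24° C for 48 h, then held at 20° C for 19 days before visual scoring.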

[4] = test system: Botrytis cinerea; test: Test C: tomato Botrytis on tomato seedlings, sprayed the day before inoculation, visual disease rating
How it was run: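 Compounds were dissolved in acetone (3% of final volume), then suspended in 50/50 acetone/purified water containing 250 ppm polyhydric alcohol ester surfactant. Suspensions were sprayed to run-off on tomato seedlings at 200 ppm, equivalent to 500 g/ha, or at 40 ppm where marked.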

[5] = test system: Puccinia recondita f. sp. tritici; test: Test I: wheat leaf rust on wheat seedlings, sprayed the day before inoculation, visual disease rating
How it was run: as §1

[6] = test system: Septoria nodorum; test: Test F: wheat glume blotch on wheat seedlings, sprayed the day before inoculation, visual disease rating
How it was run: as §1

[7] = test system: Erysiphe graminis f. sp. tritici; test: Test J: wheat powdery mildew on wheat seedlings, sprayed the day before inoculation, visual disease rating
How it was run: as §1

[8] = 200 ppm, 0 = no control relative to controls

Row | SMILES | Test D disease control rating [1, 8] [%] | Test H disease control rating [2, 8] [%] | Test G disease control rating [3, 8] [%] | Test C disease control rating [4, 8] [%] | Test I disease control rating [5, 8] [%] | Test F disease control rating [6, 8] [%] | Test J disease control rating [7, 8] [%] | Test D disease control rating ([1]; 40 ppm (marked *)) | Test H disease control rating ([2]; 40 ppm (marked *)) | Test G disease control rating ([3]; 40 ppm (marked *)) | Test C disease control rating ([4]; 40 ppm (marked *)) | Test I disease control rating ([5]; 40 ppm (marked *)) | Test F disease control rating ([6]; 40 ppm (marked *)) | Test J disease control rating ([7]; 40 ppm (marked *))
1 | COc1cc(F)c(-c2c(Cl)nc(C)n2Cc2ccc(C)nc2)c(F)c1 [compound 671] | 100 | 17 | 95 | 99 | 78 | 92 | 0 |  |  |  |  |  |  | 
2 | COc1cc(F)c(-c2c(O)nc(C)n2-c2ccc(Cl)cc2)c(F)c1 [compound 672] | 0 | 0 | 87 | 96 | 0 | 0 | 0 |  |  |  |  |  |  | 
3 | COc1cc(F)c(-c2c(Cl)nc(Cl)n2-c2ccc(NC(C)=O)nc2)c(F)c1 [compound 673] | 100 | 9 | 99 | 99 | 100 | 99 | 90 |  |  |  |  |  |  | 
4 | COc1cc(F)c(-c2c(Cl)nc(Cl)n2-c2ccc(Cl)nc2Cl)c(F)c1 [compound 674] | 93 | 98 | 99 | 99 | 100 | 98 | 94 |  |  |  |  |  |  | 
5 | COc1cc(F)c(-c2c(Cl)nc(Cl)n2-c2cccnc2C)c(F)c1 [compound 675] | 100 | 100 | 98 | 100 | 100 | 99 | 100 |  |  |  |  |  |  | 
6 | COc1cc(F)c(-c2c(Cl)nc(Cl)n2-c2cccnc2OC)c(F)c1 [compound 676] | 99 | 99 | 99 | 100 | 100 | 99 | 98 |  |  |  |  |  |  | 
7 | COc1cc(F)c(-c2c(Cl)nc(Cl)n2-c2cc(C)cnc2Cl)c(F)c1 [compound 677] | 100 | 100 | 99 | 100 | 100 | 100 | 100 |  |  |  |  |  |  | 
8 | COc1cc(F)c(-c2c(Cl)nc(Cl)n2-c2cncc(Br)c2)c(F)c1 [compound 678] | 100 | 100 | 99 | 100 | 100 | 100 | 100 |  |  |  |  |  |  | 
9 | N#Cc1ccc(F)c(-c2c(Cl)nc(Cl)n2-c2ccc(F)cc2)c1F [compound 679] | 100 | 18 | 99 | 100 | 100 | 99 | 100 |  |  |  |  |  |  | 
10 | Cc1ccc(-n2c(Cl)nc(Cl)c2-c2c(F)ccc(C#N)c2F)cc1 [compound 680] | 100 | 0 | 100 | 99 | 100 | 98 | 100 |  |  |  |  |  |  | 
11 | N#Cc1ccc(F)c(-c2c(Cl)nc(Cl)n2-c2cccc(F)c2)c1F [compound 681] | 100 | 0 | 99 | 99 | 99 | 98 | 100 |  |  |  |  |  |  | 
12 | Cc1nc(Br)n(-c2ccc(Cl)nc2)c1-c1c(F)cccc1F [compound 682] | 100 | 97 | 100 | 100 | 100 | 99 | 100 |  |  |  |  |  |  | 
13 | COc1cc(F)c(-n2cnc(C)c2-c2cccc(F)c2)c(F)c1 [compound 683] |  |  |  |  |  |  |  | 97* % | 8* % | 67* % | 100* % | 0* % | 0* % | 98* %
14 | CCOc1ccc(F)c(-c2c(Cl)nc(C)n2-c2ccc(Cl)cc2)c1F [compound 684] | 100 | 53 | 99 | 100 | 99 | 100 | 100 |  |  |  |  |  |  | 
15 | COc1cc(F)c(-n2c(Cl)nc(C)c2-c2cccc(F)c2)c(F)c1 [compound 686] |  |  |  |  |  |  |  | 100* % | 98* % | 98* % | 100* % | 99* % | 82* % | 98* %
16 | COc1cc(F)c(-n2c(Br)nc(C)c2-c2cccc(F)c2)c(F)c1 [compound 687] |  |  |  |  |  |  |  | 100* % | 100* % | 98* % | 100* % | 100* % | 99* % | 100* %
17 | COc1cc(F)c(-n2cnc(C)c2-c2ccc(Cl)cc2)c(F)c1 [compound 688] |  |  |  |  |  |  |  | 33* % | 8* % | 97* % | 100* % | 0* % | 0* % | 78* %
18 | CN(C)c1ccc(-n2c(Br)nc(N(C)C)c2-c2c(F)cccc2F)cc1Br [compound 689] | 0 | 0 | 0 | 0 | 0 | 0 | 0 |  |  |  |  |  |  | 
19 | COC(=O)c1ccc(-n2c(Br)nc(Cl)c2-c2c(F)cccc2F)cc1 [compound 690] | 0 | 0 | 98 | 78 | 74 | 0 | 81 |  |  |  |  |  |  | 
20 | N#Cc1ccc(F)c(-c2c(Cl)nc(Cl)n2-c2ccc(Cl)nc2)c1F [compound 691] |  |  |  |  |  |  |  | 99* % | 39* % | 95* % | 99* % | 82* % | 51* % | 64* %
